Experimental data as given in article PMC3199943, “Screening the MayBridge Rule of 3 Fragment Library for Compounds That Interact with the Trypanosoma brucei myo-Inositol-3-Phosphate Synthase and/or Show Trypanocidal Activity” (Molecular Biology International, 2011).
Read-outs that look alike come from different tables or passages of the source.

What was measured:
A549 cells = assay: Cytotoxicity against A549 cells, Alamar Blue; type: cell-based; conditions: Supplementary Table 1, compound 0.5 mM, percentage of controls (n=1); for viability at 500 µM: Homo sapiens, A549, 65 h
Outline: (§1)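 Seed HeLa/A549 at 2 × 10^4 cells/well in DMEM/10% FCS/2 mM L-Gln; treat ~65 h; add Alamar Blue, 5 h more.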

TbINO1 = target: T1, TbINO1 (Trypanosoma brucei brucei, UniProt Q5QQ46); assay: biochemical; type: binding
T1 sequence (Q5QQ46 1-528): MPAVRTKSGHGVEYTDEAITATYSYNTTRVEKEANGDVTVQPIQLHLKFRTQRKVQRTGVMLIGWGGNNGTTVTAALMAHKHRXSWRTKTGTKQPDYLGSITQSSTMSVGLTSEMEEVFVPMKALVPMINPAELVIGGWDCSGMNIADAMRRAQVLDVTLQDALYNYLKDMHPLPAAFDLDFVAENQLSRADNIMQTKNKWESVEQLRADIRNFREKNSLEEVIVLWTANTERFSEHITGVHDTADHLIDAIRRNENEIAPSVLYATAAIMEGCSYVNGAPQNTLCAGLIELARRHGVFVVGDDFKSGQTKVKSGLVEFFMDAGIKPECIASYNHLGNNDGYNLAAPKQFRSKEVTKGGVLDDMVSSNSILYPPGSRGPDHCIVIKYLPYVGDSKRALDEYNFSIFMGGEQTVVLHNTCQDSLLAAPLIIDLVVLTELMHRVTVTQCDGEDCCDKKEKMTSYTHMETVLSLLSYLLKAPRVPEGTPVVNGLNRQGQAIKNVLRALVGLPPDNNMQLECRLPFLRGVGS

HeLa cells = assay: cells; conditions: for HeLa Cells Alamar Blue: Supplementary Table 1, compound 0.5 mM, percentage of controls, mean ± SD (n=3) or SE (n=2); for viability at 500 µM / CC50: Homo sapiens, HeLa; for viability at 500 µM: 65 h; for CC50: read-out: HeLa ED50
Outline: as §1

[1] = Supplementary Table 1, compound 1mM, mean ± SD from Boltzman curve fitting
[2] = read-out: Tb Ino1 Tm Shift [˚C]
[3] = read-out: HeLa Cells Alamar Blue
[4] = read-out: HeLa Cells Alamar Blue (% survival)
[5] = Supplementary Table 1, compound 1mM, mean ± SD from Boltzman curve fitting, read-out: Tb Ino1 Tm Shift [˚C]

Row | Compound | ΔTm at 1000 µM (TbINO1; [2]) [°C] | viability at 500 µM (A549 cells) [%] | viability at 500 µM (HeLa cells; [3]) [%] | further results
1 | Cc1ccc(C#N)c(=O)[nH]1 [compound 109, 6‐methyl‐2‐oxo‐1,2‐dihydropyridine‐3‐carbonitrile] | – | – | – | A549 Cells Alamar Blue (A549 cells): 118.7 percentage of controls; Tb Ino1 Tm Shift [˚C] (TbINO1; [1]): 0.22 ± 0.06 °C; HeLa Cells Alamar Blue (HeLa cells): 97.4 ± 2 percentage of controls
2 | OCc1c[nH]c2ccccc12 [compound 162, 1H-indol-3-ylmethanol] | – | 41.6 | 16.3 ± 10.6 | ΔTm at 1000 µM (TbINO1; read-out: TbIno1 Tm shift [°C]): 2.31 ± 0.06 °C; viability at 500 µM (HeLa cells; [4]): 16.3 ± 10.6%; CC50 (HeLa cells): 103 ± 6 µM
3 | CC(=O)c1ccc(C#N)cc1 [compound 155, 4‐acetylbenzonitrile] | – | 131 | 87.3 ± 16.6 | ΔTm at 1000 µM (TbINO1; [5]): 0.19 ± 0.06 °C
4 | CN1CCc2c(sc(N)c2C#N)C1 [compound 581, 2‐amino‐6‐methyl‐4,5,6,7‐tetrahydrothieno[2,3‐c]pyridine‐3‐carbonitrile] | – | – | – | A549 Cells Alamar Blue (A549 cells): 82.2 percentage of controls; Tb Ino1 Tm Shift [˚C] (TbINO1; [1]): 1.39 ± 0.08 °C; HeLa Cells Alamar Blue (HeLa cells): 85.8 ± 12.8 percentage of controls
5 | Cc1nc(-c2ccc(CO)cc2)cs1 [compound 667, [4‐(2‐methyl‐1,3‐thiazol‐4‐yl)phenyl]methanol] | – | – | – | A549 Cells Alamar Blue (A549 cells): 103.8 percentage of controls; Tb Ino1 Tm Shift [˚C] (TbINO1; [1]): 0.4 ± 0.07 °C; HeLa Cells Alamar Blue (HeLa cells): 76.7 ± 4.3 percentage of controls
6 | O=C(O)CCc1ccco1 [compound 131, 3‐(2‐furyl)propanoic acid] | 1.22 ± 0.09 | 98.1 | 69.8 ± 21.4 | –
7 | N#CCCNCc1ccco1 [compound 189, 3‐[(2‐furylmethyl)amino]propanenitrile] | 0.75 ± 0.08 | 84.4 | 92.5 ± 7.2 | –
8 | NC(=O)c1ccc(F)c(Cl)c1 [compound 380, 3‐chloro‐4‐fluorobenzamide] | 0.31 ± 0.06 | 95.9 | 92.2 ± 13.4 | –
9 | O=C1CC(c2ccccc2)=NO1 [compound 272, 3-phenyl-4,5-dihydroisoxazol-5-one] | – | 61.5 | 89.4 ± 3.9 | ΔTm at 1000 µM (TbINO1; read-out: TbIno1 Tm shift [°C]): 3.56 ± 0.06 °C; viability at 500 µM (HeLa cells; [4]): 89.4 ± 3.9%
10 | N#CCOc1ccc(C(F)(F)F)cn1 [compound 634, 2‐{[5‐(trifluoromethyl)‐2‐pyridyl]oxy}acetonitrile] | – | – | – | A549 Cells Alamar Blue (A549 cells): 87.2 percentage of controls; Tb Ino1 Tm Shift [˚C] (TbINO1; [1]): 0.24 ± 0.09 °C; HeLa Cells Alamar Blue (HeLa cells): 73.3 ± 1.6 percentage of controls
11 | COc1ccc(OC)c(CN)c1 [compound 329, 2,5‐dimethoxybenzylamine] | – | 156 | 26 ± 9 | ΔTm at 1000 µM (TbINO1; [5]): 0.97 ± 0.05 °C
12 | CN(C)CCOc1ccccc1CO [compound 593, {2‐[2‐(dimethylamino)ethoxy]phenyl}methanol] | – | – | – | A549 Cells Alamar Blue (A549 cells): 59.2 percentage of controls; Tb Ino1 Tm Shift [˚C] (TbINO1; [1]): 0.13 ± 0.06 °C; HeLa Cells Alamar Blue (HeLa cells): 77.9 ± 13.5 percentage of controls
13 | CC1=NNC(=O)CC1 [compound 31, 6‐methyl‐2,3,4,5‐tetrahydropyridazin‐3‐one] | – | – | – | A549 Cells Alamar Blue (A549 cells): 68.2 percentage of controls; Tb Ino1 Tm Shift [˚C] (TbINO1; [1]): 0.22 ± 0.07 °C; HeLa Cells Alamar Blue (HeLa cells): 85.4 ± 6.1 percentage of controls
14 | NCc1ccccc1Cl [compound 136, 2‐chlorobenzylamine] | 0.02 ± 0.07 | 90.4 | 53.3 ± 12.2 | –
15 | O=C1CCSc2ccc(Cl)cc21 [compound 609, 6-chloro-3,4-dihydro-2H-1-benzothiin-4-one] | – | 105 | 74.5 ± 13.7 | ΔTm at 1000 µM (TbINO1; read-out: TbIno1 Tm shift [°C]): 2.49 ± 0.04 °C; viability at 500 µM (HeLa cells; [4]): 74.5 ± 13.7%
16 | CC(=O)c1c(O)cccc1O [compound 204, 1-(2,6-dihydroxyphenyl)ethan-1-one] | – | 34.4 | 36.3 ± 12.5 | ΔTm at 1000 µM (TbINO1; read-out: TbIno1 Tm shift [°C]): 2.35 ± 0.06 °C; viability at 500 µM (HeLa cells; [4]): 36.3 ± 12.5%
17 | N#Cc1ccccc1Oc1ccccc1 [compound 591, 2‐phenoxybenzonitrile] | 0.24 ± 0.06 | 58.3 | 93 ± 2.5 | –
18 | OCc1nccs1 [compound 38, 1,3‐thiazol‐2‐ylmethanol] | 0.18 ± 0.09 | 95 | 99.4 ± 4.1 | –
19 | Nc1cc(F)cc(F)c1 [compound 89, 3,5‐difluoroaniline] | 0.3 ± 0.07 | 132 | 104 ± 10.5 | –
20 | N#Cc1cc(-c2ccccc2)oc1N [compound 477, 2‐amino‐5‐phenyl‐3‐furonitrile] | – | 97.4 | 98.3 ± 18.6 | ΔTm at 1000 µM (TbINO1; [5]): 0.04 ± 0.1 °C
21 | Cn1c(CO)cc2sccc21 [compound 331, (4-methyl-4H-thieno[3,2-b]pyrrol-5-yl)methanol] | – | 121 | 93.6 ± 14.9 | ΔTm at 1000 µM (TbINO1; read-out: TbIno1 Tm shift [°C]): 1.54 ± 0.07 °C; viability at 500 µM (HeLa cells; [4]): 93.6 ± 14.9%; CC50 (HeLa cells): 169 ± 10 µM
22 | NCc1cccc(CN2CCCC2)c1 [compound 550, [3‐(1‐pyrrolidinylmethyl)phenyl]methanamine] | – | – | – | A549 Cells Alamar Blue (A549 cells): 108.7 percentage of controls; Tb Ino1 Tm Shift [˚C] (TbINO1; [1]): 0.03 ± 0.07 °C; HeLa Cells Alamar Blue (HeLa cells): 47.8 ± 11.7 percentage of controls
23 | N#Cc1c(N)cccc1F [compound 115, 2‐amino‐6‐fluorobenzonitrile] | 0.17 ± 0.07 | 77.4 | 71.3 ± 0.6 | –
24 | N#CCc1ccc(O)cc1 [compound 98, 2‐(4‐hydroxyphenyl)acetonitrile] | – | 115 | 92.9 ± 6.5 | ΔTm at 1000 µM (TbINO1; [5]): 0.27 ± 0.05 °C

Second part, led by results:

Row | ΔTm at 1000 µM (TbINO1; [2]) [°C] | Compound | viability at 500 µM (A549 cells) [%] | viability at 500 µM (HeLa cells; [3]) [%] | further results
25 | 0 | Cn1ccc2cc(C(=O)O)ccc21 [compound 394, 1‐methyl‐1H‐indole‐5‐carboxylic acid] | 82 | 95 ± 12.2 | –
26 | 0.14 ± 0.08 | COC(=O)c1ccccc1C [compound 183, methyl 2‐methylbenzoate] | 51 | 114 ± 4.3 | –
27 | 0.75 ± 0.08 | Fc1ccc(-n2cccc2)cc1 [compound 276, 1‐(4‐fluorophenyl)‐1H‐pyrrole] | 70.2 | 104 ± 16.6 | –
28 | 0.15 ± 0.07 | Cc1nccc(-c2cccc(N)c2)n1 [compound 493, 3‐(2‐methylpyrimidin‐4‐yl)aniline] | 92.6 | 65.9 ± 17 | –
29 | 1.27 ± 0.07 | Cc1oc(-c2ccccc2)cc1CO [compound 521, (2‐methyl‐5‐phenyl‐3‐furyl)methanol] | 57.1 | 41.5 ± 15 | –
30 | 0.01 ± 0.07 | Cc1nc(C#N)cs1 [compound 67, 2‐methyl‐1,3‐thiazole‐4‐carbonitrile] | 89.7 | 96.1 ± 9.2 | –
31 | 0.52 ± 0.06 | ON=C1CCCCCN1 [compound 87, azepan‐2‐one oxime] | 115 | 92.3 ± 17.4 | –
32 | 0.61 ± 0.06 | CCOC(=O)c1[nH]c(C)cc1C [compound 330, ethyl 3,5‐dimethyl‐1H‐pyrrole‐2‐carboxylate] | 156 | 122 ± 12.3 | –
33 | 0.12 ± 0.07 | Cc1cccc(CN)c1C [compound 113, 2,3‐dimethylbenzylamine] | 83.6 | 89.3 ± 15.9 | –
34 | 0.17 ± 0.06 | Cc1cc(O)nc2ccccc12 [compound 258, 4‐methyl‐2‐quinolinol] | 90.7 | 92.7 ± 13.6 | –
35 | 0.19 ± 0.06 | NCc1ccc(-n2cccn2)cc1 [compound 378, 4‐(1H‐pyrazol‐1‐yl)benzylamine] | 95.9 | 101 ± 8.3 | –
36 | 0.1 ± 0.08 | Cc1nc(C(=O)O)cs1 [compound 146, 2‐methyl‐1,3‐thiazole‐4‐carboxylic acid] | 109 | 87 ± 6.4 | –
37 | 0.18 ± 0.06 | N#Cc1ccccc1-n1cccn1 [compound 340, 2‐(1H‐pyrazol‐1‐yl)benzonitrile] | 134 | 104 ± 16.5 | –
38 | 0.91 ± 0.07 | O=C(O)c1ccc(-c2ccccn2)s1 [compound 661, 5‐(2‐pyridyl)thiophene‐2‐carboxylic acid] | 94.1 | 95.3 ± 3.5 | –
39 | 0.34 ± 0.06 | OCc1ccccc1N1CCOCC1 [compound 580, (2‐morpholinophenyl)methanol] | 123 | 91.3 ± 16 | –
40 | 0.03 ± 0.07 | O=C1CC(C(=O)O)c2ccccc21 (stereo not shown) [compound 409, 3‐oxoindane‐1‐carboxylic acid] | 92 | 107 ± 10.9 | –
41 | 0.2 ± 0.07 | Cc1cc(C(N)=S)no1 [compound 140, 5‐methylisoxazole‐3‐carbothioamide] | 110 | 89.2 ± 6.5 | –
